This is an account of results in patent US20090004145A1, “COMPOSITIONS AND METHODS INVOLVING GENE THERAPY AND PROTEASOME MODULATION” (priority 2006, published 2009).

The structures appear in SMILES notation. Where a SMILES comes first, the peptide text is derived from it. The star is where a group is joined. Cbz = O=C(OCc1ccccc1)*

For assay [1], the system named is proteasome activity in 2008 cells. Nature of the assay: Proteasome activity assay (commercially available kit) on cell lysates. Type of assay: cell-based, human. As to conditions: 48 h. Here is the method:
(§1) FIG. 11. Inhibition of the proteasomal activity by MG132 results in increased ubiquitinated MDA-7 protein expression in CDDP-sensitive tumor cells but not in CDDP-resistant tumor cells. FIG. 11A, CDDP-resistant (2008/C*13 R) and sensitive (2008) ovarian tumor cells were plated in six-well plates and were treated with PBS, MG132, Ad-mda7, or Ad-mda7 plus MG132. At 48 h after treatment cells were harvested, lysates and supernatants prepared and subjected to MDA-7 and total ubiquitinated protein detection by western blotting and proteasome activity assay using commercially available kit. […] However, the MDA-7 protein was increased in 2008 cells when treated with MG132 plus Ad-mda7. […] FIG. 11B, CDDP-resistant (2008/C*13 R) and sensitive (2008) ovarian tumor cells were plated in six-well plates and were treated with PBS, MG132, Ad-p53, or Ad-p53 plus MG132. At 48 h after treatment cells were harvested, lysates and supernatants prepared and subjected to p53 protein detection by western blotting and proteasome activity using commercially available kit. […] However, the p53 protein was increased in 2008 cells when treated with MG132 plus Ad-p53.
FIG. 20. SiRNA-mediated inhibition of Beta-5 subunit expression of the 20S proteasome in CDDP-sensitive tumor cells abrogates proteasome activity. CDDP-sensitive (2008) ovarian tumor cells were plated in six-well plates. […]

The test system of assay [2] is MDA-7 protein in 2008 cells. Nature of the assay: Western blotting of MDA-7 protein expression. The format is cell-based, human. As to conditions: 48 h, vs Ad-mda7 alone. Here is the method:
as §1
FIG. 18. […] CDDP-sensitive (2008) ovarian tumor cells were plated in six-well plates. […]
FIG. 21. […] MDA-7 protein was detected in cells that were treated with Ad-mda7. […]

`CC(C)C[C@@H](C=O)NC(=O)[C@H](CC(C)C)NC(=O)[C@H](CC(C)C)NC(=O)OCc1ccccc1` [MG132] (Cbz-Leu-Leu-Leu-aldehyde): the “inhibition of proteasome activity” value in assay [1] (FIG. 11A (Ad-mda7 experiment)) and in assay [1] (FIG. 11B (Ad-p53 experiment)) was 60-65% in each case. For the same compound, the “MDA-7 protein expression with proteasome inhibitor” value in assay [2] is given as “significantly increased”.
